This is an account of results in US20170145472A1, “METHOD OF DETECTING HELICASE ACTIVITY” (University of Macau, priority 2015, published 2017).

The subject of data set [1] is PS2.M G-quadruplex DNA. In words: Luminescence response of Ir(III) complexes towards different forms of DNA. To be noted: complex 1 μM, DNA 5 μM. Format: binding. An excerpt:
M G-quadruplex DNA (G4) over dsDNA (ds17) and ssDNA (CCRS-DEL), in particular IG4/IdsDNA refers to the ratio of the luminescent response of PS2. M G-quadruplex DNA over dsDNA (ds17); and IG4/IssDNA refers to the ratio of the luminescent response of PS2. M G-quadruplex DNA over ssDNA(CCR5-DEL).
M G-quadruplex DNA over dsDNA (ds17) and ssDNA (CCRS-DEL), in particular IG4/IdsDNA refers to the ratio of the luminescent response of PS2. M G-quadruplex DNA over dsDNA (ds17); and IG4/IssDNA refers to the ratio of the luminescent response of PS2. M G-quadruplex DNA over ssDNA(CCR5-DEL).
The G-quadruplex DNA-forming sequence (PS2. M) was annealed in Tris-HCl buffer (20 mM Tris, 100 mM KCl, pH 7.0) and were stored at −20° C. or less than −20° C. before use. Complex 1-17 (1 μM) was added to 5 μM of ssDNA, dsDNA or PS2. M G-quadruplex DNA in Tris-HCl buffer (20 mM Tris, pH 7.0).

Data set [2] has as its target T1, helicase (Hepatitis C virus genotype 1a, UniProt P27958).
T1 construct: upon the addition of 0.8 μM HCV NS3 helicase; purchased Prospec Inc. (Ness-Ziona, Israel)
In words: Luminescence response of complexes towards helicase alone. An excerpt:
M G-quadruplex DNA over helicase, IG4/Ihelicase refers to the ratio of the lunminscent response of PS2. M G-quadruplex DNA over helicase.

Data set [3] has as its system Pu27 G-quadruplex DNA. The data set is described as follows: G-quadruplex fluorescent intercalator displacement (G4-FID) assay. The data set is classed as binding. How it is done: The FID assay was performed as described. The Pu27 G-quadruplex DNA (0.25 μM) in Tris-HCl buffer (20 mM Tris, 100 mM KCl, pH 7.0) were annealed by heating at a temperature of 72-98° C., in particular 95° C., for at least 10 min. Indicated concentration of thiazole orange (0.5 μM for Pu27 G-quadruplex DNA and 0.5 μM for ds17) was added and the mixture was incubated for at least 30 minutes, in particular 1 hour. Emission measurement was taken after addition of each indicated concentration of complex 9 followed by an equilibration time for 5 minutes. The fluorescence area was converted into percentage of displacement (PD) by using the following equation. PD=100−[(FA/FA0)×100] (FA0=fluorescence area of DNA-TO complex in the absence of complex 9; FA=fluorescence area in the presence of complex 9).

Data set [4] has as its system F21T G-quadruplex DNA. In words: FRET melting assay, G-quadruplex. Format: binding. As to conditions: F21T 0.2 μM, complex 9 5 μM. How it is done: (§1) The ability of complex 9 to stabilize G-quadruplex DNA was investigated using a fluorescence resonance energy transfer (FRET) melting assay. The labeled G-quadruplex-forming oligonucleotide F21T, consisting of a sequence 5′-FAM-(SEQ ID NO: 5)-TAMRA-3′ (donor fluorophore FAM: 6-carboxyfluorescein; acceptor fluorophore TAMRA: 6-carboxytetramethylrhodamine), was diluted to 200 nM in a potassium cacodylate buffer (100 mM KCl, pH 7.0), and then heated from room temperature to 95° C. in the presence of the indicated concentrations of complex 9. The labeled duplex-forming oligonucleotide F10T, consisting of a sequence 5′-FAM-[…]-HEG-(SEQ ID NO: 6)-3′ (HEG linker: [(—CH2—CH2—O—)6]), was treated in the same manner, except that the buffer was changed to 10 mM lithium cacodylate (pH 7.4). Fluorescence readings were taken at intervals of 0.5° C. in a range of 25 to 95° C.

Data set [5] deals with F10T dsDNA. In words: FRET melting assay, duplex. As to conditions: F10T 0.2 μM, complex 9 5 μM. Format: binding. How it is done:
as §1

For data set [6], the target named is T2, HCV NS3 helicase (Hepatitis C virus genotype 1a, UniProt P27958).
T2 construct: upon the addition of 0.8 μM HCV NS3 helicase; purchased Prospec Inc. (Ness-Ziona, Israel)
T2 sequence (P27958 1027-1657): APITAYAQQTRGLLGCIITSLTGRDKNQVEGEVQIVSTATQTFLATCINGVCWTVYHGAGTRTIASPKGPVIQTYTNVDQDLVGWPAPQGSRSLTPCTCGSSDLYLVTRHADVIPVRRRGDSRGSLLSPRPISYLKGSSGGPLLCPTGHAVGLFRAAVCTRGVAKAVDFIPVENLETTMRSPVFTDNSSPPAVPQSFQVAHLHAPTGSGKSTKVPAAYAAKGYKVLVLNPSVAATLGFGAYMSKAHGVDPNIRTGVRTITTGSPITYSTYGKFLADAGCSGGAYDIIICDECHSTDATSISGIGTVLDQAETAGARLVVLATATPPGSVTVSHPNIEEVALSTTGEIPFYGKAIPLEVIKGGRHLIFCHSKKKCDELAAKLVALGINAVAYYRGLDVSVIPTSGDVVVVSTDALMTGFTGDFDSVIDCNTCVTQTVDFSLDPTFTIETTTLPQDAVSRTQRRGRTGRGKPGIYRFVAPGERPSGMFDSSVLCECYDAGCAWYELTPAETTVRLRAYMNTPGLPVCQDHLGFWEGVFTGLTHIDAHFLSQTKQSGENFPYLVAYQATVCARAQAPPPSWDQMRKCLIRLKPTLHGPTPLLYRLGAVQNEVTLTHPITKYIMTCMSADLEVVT
The data set is described as follows: G-quadruplex-based luminescent HCV NS3 helicase activity assay. The data set is classed as biochemical. The protocol:
The random-coil oligonucleotides ON1 (100 μM) and ON2 (100 μM) were incubated in Tris buffer (20 mM, pH 7.0). The solution was heated at a temperature of 72-98° C., in particular 95° C., for at least 30 seconds in particular 10 min, cooled to room temperature at 0.1° C./s, and further incubated at room temperature for 1 hour to ensure formation of the duplex substrate. The annealed product was stored at −20° C. before use. For assaying enzyme activity, 50 μL of Tris buffered solution (5 mM Tris-HCl, 5 mM NaCl, 1 mM MgCl2, 1 mM ATP, 0.1 mM DTT, pH 7.9) with the indicated concentrations of helicase or S1, Endo, DpnI, ExoI, EcoRI, RNase, DNase, and SSB were added to a solution containing the duplex substrate (0.25 μM). The mixture was heated to 37° C. for at least 30 minutes, e.g. 2 hours, to allow the indicated enzymes-catalyzed unwinding of the duplex substrate to take place. The duplex unwinding reaction was quenched by the addition of EDTA at a final concentration of 20 mM, and the mixture was subsequently diluted using Tris buffer (20 mM Tris, 20 mM KCl, 150 mM NH4Ac, pH 7.2) to a final volume of 500 μL. […] Emission spectra were recorded in the 500-720 nm range using an excitation wavelength of 360 nm.
For the detection of helicase activity in cell extract, 50 μL of Tris buffered solution (5 mM Tris-HCl, 5 mM NaCl, 1 mM MgCl2, 1 mM ATP, 0.1 mM DTT, pH 7.9) and the indicated concentrations of helicase were added to a solution containing the duplex substrate (0.25 μM) and cell extract. The mixture was heated to 37° C. for at least 30 minutes, e.g. 2 hours, to allow the helicase-catalyzed unwinding of the duplex substrate to take place. The duplex unwinding reaction was quenched by the addition of EDTA at a final concentration of 20 mM, and the mixture was subsequently diluted using Tris buffer (20 mM Tris, 20 mM KCl, 150 mM NH4Ac, pH 7.2) to a final volume of 500 μL. Finally, 1 μM of complex 9 was added to the mixture. Emission spectra were recorded in the 500-720 nm range using an excitation wavelength of 360 nm.

A short description of data set [7]: Photophysical measurement. The data set is classed as physicochemical. How it is done: Emission spectra and lifetime measurements for complexes were performed on a PTI TimeMaster C720 Spectrometer (Nitrogen laser: pulse output 337 nm) fitted with a 380 nm filter. Error limits were estimated: λ (±1 nm); τ (±10%); φ (±10%). All solvents used for the lifetime measurements were degassed using three cycles of freeze-vac-thaw.
Luminescence quantum yields were determined using the method of Demas and Crosby [Ru(bpy)3][PF6]2 in degassed acetonitrile as a standard reference solution (Φr=0.062) and calculated according to the following equation:
Φs=Φr(Br/Bs)(ns/nr)^2(Ds/Dr) • where the subscripts s and r refer to sample and reference standard solution respectively, n is the refractive index of the solvents, D is the integrated intensity, and Φ is the luminescence quantum yield. The quantity B was calculated by B=1−10^−AL, where A is the absorbance at the excitation wavelength and L is the optical path length.

T1 sequence (P27958 1027-1657): as above

For `F[P-](F)(F)(F)(F)F.[Ir+3].[c-]1ccccc1-c1ccc2ccccc2n1.[c-]1ccccc1-c1ccc2ccccc2n1.c1cnc2c(c1)ccc1cccnc12` [Complex 9], in data set [1], the “luminescence response in the presence of the PS2.M G-quadruplex” value is given as “significantly enhanced luminescence response”. For the same compound, in data set [2] (0.8 μM HCV NS3 helicase), the “change in luminescence intensity of the complex 9+G-quadruplex ensemble upon addition of helicase” value is “no significant change”. In addition, the “luminescence enhancement in the presence of helicase only” value in data set [2] (helicase alone, no DNA) was “no luminescence enhancement in the presence of helicase”. In addition, the “G4DC50, half-maximal concentration of compound required to displace 50% TO from DNA” value in data set [3] (Pu27 G-quadruplex DNA 0.25 μM, thiazole orange 0.5 μM, Tris-HCl buffer) is listed as “ca. 5 μM”. For the same compound, in data set [3] (Pu27 G-quadruplex vs ds17 duplex), the “displacement of thiazole orange from G-quadruplex DNA compared with duplex DNA” value is recorded as “higher efficacy than from duplex DNA”. Further, the “increase of melting temperature (ΔTm) of F21T G-quadruplex” value in data set [4] was “about 13 °C”. Moreover, the “change in the melting temperature of F10T dsDNA” value in data set [5] was 4 °C. In data set [6] (ON1-ON2 duplex substrate, K+), the “luminescence of complex 9 upon incubation with helicase and the ON1-ON2 duplex substrate” value is listed as “significantly enhanced”. Besides, the “luminescence of complex 9 in response to helicase for the mutant DNA sequences” value in data set [6] (ON1m/ON2 duplex mutant 0.25 μM, helicase 0.9 μM, complex 9 1 μM) was “slight decrease”. Also, the “enhancement in luminescence of the system” value in data set [6] (helicase concentration 0.9 μM) is recorded as “ca. 4.5 fold”. The “luminescence intensity of the system with increasing helicase in cell extract” value in data set [6] (reaction system containing 0.5% (v/v) cell extract) is “gradual increase in luminescence intensity”. In addition, in data set [6] (signal-to-noise ratio (S/N) of 3), the “detection limit of the assay for helicase” value is 0.09 µM. In data set [7], this compound registered a Lifetime of 8.13 μs and a λem of 570 nm. This compound also yielded a Quantum yield in data set [7] (reference [Ru(bpy)3][PF6]2 in degassed acetonitrile) of 0.12.
